Measurements published in ChEMBL document CHEMBL1201862, “PubChem BioAssay data set” (2004).
The source made the active and inactive calls.

Assays:
Beta-galactosidase = Beta-galactosidase (Escherichia coli, UniProt Q8VNN2); assay: PubChem AID 485352; type: functional
[1] = target: T1, Type-1 angiotensin II receptor (Homo sapiens, UniProt P30556); assay: AT1 receptor antagonists, dose response, selectivity assay for APJ receptor antagonist project, cell-based, uHTS hits (AID 463214); type: functional;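 further: antagonist potency against angiotensin II stimulated AT1 response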
T1 sequence (P30556 whole entry): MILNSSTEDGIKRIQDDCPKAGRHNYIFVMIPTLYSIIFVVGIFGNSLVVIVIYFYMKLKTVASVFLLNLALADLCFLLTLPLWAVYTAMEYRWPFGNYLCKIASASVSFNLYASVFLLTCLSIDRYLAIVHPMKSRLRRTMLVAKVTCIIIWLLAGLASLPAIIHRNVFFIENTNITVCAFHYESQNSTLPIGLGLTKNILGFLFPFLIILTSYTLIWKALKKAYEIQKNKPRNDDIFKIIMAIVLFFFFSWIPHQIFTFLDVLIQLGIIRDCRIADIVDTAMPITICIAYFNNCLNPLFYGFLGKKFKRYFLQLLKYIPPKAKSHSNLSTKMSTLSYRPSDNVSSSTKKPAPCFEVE

[2] = target: T2, Heat shock factor protein 1 (Mus musculus, UniProt P38532); assay: HSF1 potentiators in luciferase reporter cells, confirmation, cell-based, NIH3T3, luminescence, dose retest (AID 435004); type: functional;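 further: stress induced by proteasome inhibitor MG132 added 30 min after compound; luciferase reporter driven by HSF1 response element in NIH3T3 cells; actives raise luminescence as potentiators of the MG132 stress response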
T2 sequence (P38532 whole entry): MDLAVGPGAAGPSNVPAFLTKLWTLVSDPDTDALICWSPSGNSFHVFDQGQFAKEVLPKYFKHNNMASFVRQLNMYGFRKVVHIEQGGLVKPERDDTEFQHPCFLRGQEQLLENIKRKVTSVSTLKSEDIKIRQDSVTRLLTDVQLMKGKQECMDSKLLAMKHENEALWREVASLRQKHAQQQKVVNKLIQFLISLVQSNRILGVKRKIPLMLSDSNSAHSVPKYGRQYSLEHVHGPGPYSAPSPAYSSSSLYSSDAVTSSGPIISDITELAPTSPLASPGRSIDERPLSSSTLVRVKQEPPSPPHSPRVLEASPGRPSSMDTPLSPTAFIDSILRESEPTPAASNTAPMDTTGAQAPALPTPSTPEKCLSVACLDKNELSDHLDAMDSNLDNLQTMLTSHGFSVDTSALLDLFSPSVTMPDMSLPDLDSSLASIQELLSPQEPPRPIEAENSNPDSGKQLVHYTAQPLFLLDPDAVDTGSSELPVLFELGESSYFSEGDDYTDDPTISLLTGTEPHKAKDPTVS

[3] = target: T3, E3 ubiquitin-protein ligase XIAP (Homo sapiens, UniProt P98170); assay: Counter Screen using XIAP-Bir3 for Chemical Antagonists of Bir1/2 domains of IAP-family anti-apoptotic proteins. [Related pubchem assays (depositor defined):AID1018, AID1449, AID1514, AID1638, AID1749, AID1750, AID488957, AID488963]
T3 sequence (P98170 whole entry): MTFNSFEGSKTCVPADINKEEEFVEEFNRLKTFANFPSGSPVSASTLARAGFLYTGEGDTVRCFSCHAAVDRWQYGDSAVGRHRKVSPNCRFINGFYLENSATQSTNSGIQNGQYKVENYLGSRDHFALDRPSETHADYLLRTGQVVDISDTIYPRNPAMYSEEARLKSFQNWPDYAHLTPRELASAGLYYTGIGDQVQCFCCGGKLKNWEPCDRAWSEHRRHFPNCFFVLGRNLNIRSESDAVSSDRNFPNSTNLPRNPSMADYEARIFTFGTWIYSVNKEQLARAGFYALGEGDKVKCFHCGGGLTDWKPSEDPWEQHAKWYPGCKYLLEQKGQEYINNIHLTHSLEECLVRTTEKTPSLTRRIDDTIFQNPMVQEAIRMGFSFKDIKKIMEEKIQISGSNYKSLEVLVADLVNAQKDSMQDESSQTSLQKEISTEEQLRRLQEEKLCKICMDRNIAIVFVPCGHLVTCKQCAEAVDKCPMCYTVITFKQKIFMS

[4] = target: T3, E3 ubiquitin-protein ligase XIAP; assay: XIAP antagonists, biochemical, IAP family, fluorescence polarization (AID 1018); type: functional
INS1 = assay: beta cell apoptosis inhibitors, cytokine rescue, dose response, luminescence, retest (AID 449756); type: functional, cell-based; details: Rattus norvegicus;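 further: cell death triggered by IL-1 beta plus TNF-alpha plus IFN-gamma mixture; protective hits raise ATP signal compared with cytokine alone wells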
H9c2 = assay: cells; type: functional, cell-based; details: Rattus norvegicus, H9c2, Myocardium;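 further: confirmatory concentration-response retest of ultra-high-throughput screening hits for modulation of myocardial damage; cell death induced by hydrogen peroxide oxidative stress; compound pretreatment for 60 min then peroxide exposure for 2 h; potency is for protecting the cells against peroxide damage rather than for killing them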
Insulin-degrading enzyme [5] = target: T4, Insulin-degrading enzyme (Homo sapiens, UniProt P14735); assay: activators of recombinant IDE enzyme, dose response, counter-screen for IDE activator project, biochemical, fluorescence polarization (AID 588681)
T4 sequence (P14735 whole entry): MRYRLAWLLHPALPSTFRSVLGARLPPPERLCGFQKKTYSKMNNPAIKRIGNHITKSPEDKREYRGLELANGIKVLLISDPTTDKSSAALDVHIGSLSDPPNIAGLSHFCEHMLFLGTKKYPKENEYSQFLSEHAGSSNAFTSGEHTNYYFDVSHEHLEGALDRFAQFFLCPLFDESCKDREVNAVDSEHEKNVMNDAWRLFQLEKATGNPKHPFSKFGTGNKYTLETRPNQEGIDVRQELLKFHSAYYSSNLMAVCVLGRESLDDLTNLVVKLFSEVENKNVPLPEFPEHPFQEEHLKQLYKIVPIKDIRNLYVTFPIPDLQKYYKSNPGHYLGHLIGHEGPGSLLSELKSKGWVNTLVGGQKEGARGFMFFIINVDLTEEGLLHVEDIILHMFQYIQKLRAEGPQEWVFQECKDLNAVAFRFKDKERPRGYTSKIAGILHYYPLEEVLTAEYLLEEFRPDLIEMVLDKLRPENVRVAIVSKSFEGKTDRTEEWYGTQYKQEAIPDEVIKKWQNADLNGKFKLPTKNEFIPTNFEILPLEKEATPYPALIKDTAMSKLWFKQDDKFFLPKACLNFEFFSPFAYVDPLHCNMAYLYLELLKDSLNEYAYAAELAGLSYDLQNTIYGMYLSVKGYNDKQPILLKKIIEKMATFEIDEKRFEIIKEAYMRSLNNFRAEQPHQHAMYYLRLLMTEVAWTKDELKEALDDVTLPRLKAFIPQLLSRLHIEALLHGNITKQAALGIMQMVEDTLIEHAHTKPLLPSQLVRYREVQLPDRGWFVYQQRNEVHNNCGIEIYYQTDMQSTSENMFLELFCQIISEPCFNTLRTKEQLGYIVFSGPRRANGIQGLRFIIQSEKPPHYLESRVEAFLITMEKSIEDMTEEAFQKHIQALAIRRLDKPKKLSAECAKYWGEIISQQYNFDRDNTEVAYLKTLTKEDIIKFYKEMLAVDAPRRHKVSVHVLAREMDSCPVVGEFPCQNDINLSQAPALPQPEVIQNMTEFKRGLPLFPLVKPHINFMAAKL

Insulin-degrading enzyme [6] = target: T4, Insulin-degrading enzyme; assay: activators of endogenous IDE in HEK cells, dose response, cell-based, fluorescence polarization (AID 588439); type: functional
HEK293 [7] = assay: HEK cell cytotoxicity by LDH release, dose response, cytotoxicity control for IDE activator project, fluorescence, HEK cells (AID 588440); type: functional, cell-based; details: Homo sapiens;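 further: cytotoxicity by LDH release measuring loss of membrane integrity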
HEK293 [8] = assay: optical interference in Abeta FP readout, dose response, artefact control for IDE activator project, biochemical, fluorescence polarization (AID 588442); type: functional, cell-based; details: Homo sapiens
[9] = target: Voltage-gated inwardly rectifying potassium channel KCNH2 (Homo sapiens, UniProt Q12809); details: Potency;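 further: confirmatory quantitative high-throughput screen measuring inhibition of hERG channel activity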
Sequence of Voltage-gated inwardly rectifying potassium channel KCNH2 (Q12809 whole entry): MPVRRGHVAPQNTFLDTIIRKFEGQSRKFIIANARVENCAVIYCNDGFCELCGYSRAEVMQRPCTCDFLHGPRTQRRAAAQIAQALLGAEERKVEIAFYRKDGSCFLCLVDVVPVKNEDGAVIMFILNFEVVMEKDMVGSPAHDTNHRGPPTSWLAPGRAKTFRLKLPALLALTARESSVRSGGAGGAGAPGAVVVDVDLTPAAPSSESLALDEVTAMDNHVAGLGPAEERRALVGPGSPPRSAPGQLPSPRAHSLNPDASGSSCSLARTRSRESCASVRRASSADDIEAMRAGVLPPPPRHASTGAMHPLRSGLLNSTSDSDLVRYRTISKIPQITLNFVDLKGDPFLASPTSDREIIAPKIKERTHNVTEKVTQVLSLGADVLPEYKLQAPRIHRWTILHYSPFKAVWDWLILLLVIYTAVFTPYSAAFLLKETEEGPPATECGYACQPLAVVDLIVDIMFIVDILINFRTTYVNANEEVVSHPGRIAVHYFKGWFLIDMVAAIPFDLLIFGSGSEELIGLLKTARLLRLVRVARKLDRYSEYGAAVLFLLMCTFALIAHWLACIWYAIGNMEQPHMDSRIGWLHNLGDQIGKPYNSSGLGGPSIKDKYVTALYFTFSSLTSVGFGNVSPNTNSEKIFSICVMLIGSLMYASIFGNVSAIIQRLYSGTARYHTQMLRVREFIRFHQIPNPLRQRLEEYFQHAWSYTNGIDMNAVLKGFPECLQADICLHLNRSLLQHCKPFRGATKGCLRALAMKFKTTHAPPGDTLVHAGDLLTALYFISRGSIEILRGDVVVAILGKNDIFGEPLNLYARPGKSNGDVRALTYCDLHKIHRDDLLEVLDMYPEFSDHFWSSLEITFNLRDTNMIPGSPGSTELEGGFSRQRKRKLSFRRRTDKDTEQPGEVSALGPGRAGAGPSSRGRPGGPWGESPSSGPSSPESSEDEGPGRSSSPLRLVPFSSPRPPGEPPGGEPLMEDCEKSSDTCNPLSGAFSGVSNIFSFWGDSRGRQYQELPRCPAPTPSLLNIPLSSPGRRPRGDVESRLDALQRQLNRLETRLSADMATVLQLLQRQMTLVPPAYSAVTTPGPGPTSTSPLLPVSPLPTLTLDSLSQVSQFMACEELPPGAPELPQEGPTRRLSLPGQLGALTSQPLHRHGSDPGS

[10] = target: T5, Apoptotic protease-activating factor 1 (Homo sapiens, UniProt O14727); type: functional
T5 sequence (O14727 whole entry): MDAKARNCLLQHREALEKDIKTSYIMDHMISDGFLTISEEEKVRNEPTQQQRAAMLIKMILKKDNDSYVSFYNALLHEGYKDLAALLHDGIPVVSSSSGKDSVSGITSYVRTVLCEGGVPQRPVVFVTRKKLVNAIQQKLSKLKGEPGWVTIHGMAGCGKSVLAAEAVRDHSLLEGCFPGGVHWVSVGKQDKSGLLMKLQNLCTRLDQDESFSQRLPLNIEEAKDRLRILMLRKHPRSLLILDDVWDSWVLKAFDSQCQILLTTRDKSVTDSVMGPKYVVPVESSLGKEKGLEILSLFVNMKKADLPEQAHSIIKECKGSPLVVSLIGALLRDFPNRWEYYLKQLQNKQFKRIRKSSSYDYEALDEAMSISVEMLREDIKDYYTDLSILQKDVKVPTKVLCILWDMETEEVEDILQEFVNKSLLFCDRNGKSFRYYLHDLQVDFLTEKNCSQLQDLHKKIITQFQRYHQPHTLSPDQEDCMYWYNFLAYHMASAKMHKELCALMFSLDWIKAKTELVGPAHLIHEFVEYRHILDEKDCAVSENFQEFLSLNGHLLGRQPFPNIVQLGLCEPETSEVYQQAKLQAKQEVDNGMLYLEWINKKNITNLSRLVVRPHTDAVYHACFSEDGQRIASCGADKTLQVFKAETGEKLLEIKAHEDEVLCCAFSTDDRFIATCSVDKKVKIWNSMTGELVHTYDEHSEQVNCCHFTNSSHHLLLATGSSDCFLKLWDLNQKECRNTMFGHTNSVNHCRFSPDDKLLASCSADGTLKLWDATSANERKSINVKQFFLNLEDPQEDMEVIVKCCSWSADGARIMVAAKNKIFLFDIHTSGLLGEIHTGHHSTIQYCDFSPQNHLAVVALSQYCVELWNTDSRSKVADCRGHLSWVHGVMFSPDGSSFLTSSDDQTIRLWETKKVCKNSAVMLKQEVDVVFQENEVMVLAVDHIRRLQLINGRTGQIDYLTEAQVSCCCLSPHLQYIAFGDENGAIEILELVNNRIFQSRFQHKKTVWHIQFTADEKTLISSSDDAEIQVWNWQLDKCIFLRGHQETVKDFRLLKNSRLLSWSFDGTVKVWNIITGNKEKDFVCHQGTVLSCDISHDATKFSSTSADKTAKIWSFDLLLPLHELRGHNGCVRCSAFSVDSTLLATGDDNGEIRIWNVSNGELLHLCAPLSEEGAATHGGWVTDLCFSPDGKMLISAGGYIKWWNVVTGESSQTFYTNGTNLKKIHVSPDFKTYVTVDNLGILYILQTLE

[11] = insulin promoter down-regulators in MIN6 cells, imaging, high-content screening, mouse beta cells (AID 1628); type: functional
[12] = cytotoxicity in MIN6 insulinoma cells, dose response, cytotoxicity control, cell-based, mouse insulinoma (AID 2122); type: functional;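 further: confirmatory high-throughput counterscreen run to flag cytotoxic compounds; mouse MIN-6 beta cells carrying an insulin promoter eGFP reporter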
Vero = Vero cell cytotoxicity, cytotoxicity control for flavivirus capping enzyme inhibitors (AID 588742); type: functional; details: Chlorocebus sabaeus
CHO-K1 = assay: (§1) Counterscreen for antagonists of the orexin 1 receptor (OX1R; HCRTR1): Homogeneous time resolved fluorescence (HTRF)-based cell-based dose response assay to identify antagonists of the parental CHO-K1 cell line. [Related pubchem assays (depositor defined):AID434989, AID435008, AID463079, AID485270, AID492963, AID492964, AID492965, AID493232, AID504699, AID504701]; type: functional; details: Cricetulus griseus
[13] = as §1, with “Fluorescence-based” for “Homogeneous time resolved fluorescence (HTRF)-based”, “cell-based high throughput” for “cell-based”, “CHO” for “CHO-K1”; type: functional
[14] = target: T6, Orexin/Hypocretin receptor type 1 (Homo sapiens, UniProt O43613); assay: Homogeneous Time Resolved Fluorescence (HTRF)-based cell-based high throughput dose response assay for antagonists of the orexin 1 receptor (OX1R; HCRTR1). [Related pubchem assays (depositor defined):AID434989, AID435008, AID463079, AID485270, AID492963, AID492964, AID492965, AID493232, AID504717, AID504718]; type: functional
T6 sequence (O43613 whole entry): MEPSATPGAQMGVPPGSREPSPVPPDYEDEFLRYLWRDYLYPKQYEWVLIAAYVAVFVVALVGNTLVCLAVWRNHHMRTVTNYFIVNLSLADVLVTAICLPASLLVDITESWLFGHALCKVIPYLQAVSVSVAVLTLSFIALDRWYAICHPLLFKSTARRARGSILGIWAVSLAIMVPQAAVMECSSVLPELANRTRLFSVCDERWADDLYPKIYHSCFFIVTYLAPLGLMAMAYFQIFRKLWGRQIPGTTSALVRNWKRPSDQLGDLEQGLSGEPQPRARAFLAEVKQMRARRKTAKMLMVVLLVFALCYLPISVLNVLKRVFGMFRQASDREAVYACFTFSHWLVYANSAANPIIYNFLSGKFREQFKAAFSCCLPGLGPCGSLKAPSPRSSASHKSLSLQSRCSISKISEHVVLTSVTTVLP

[15] = target: T6, Orexin/Hypocretin receptor type 1; assay: Fluorescence-based cell-based high throughput dose response assay for antagonists of the orexin 1 receptor (OX1R; HCRTR1). [Related pubchem assays (depositor defined):AID434989, AID435008, AID463079, AID485270, AID492963, AID492964, AID492965, AID493232, AID504717, AID504718]; type: functional

Sequence of Beta-galactosidase (Q8VNN2 whole entry): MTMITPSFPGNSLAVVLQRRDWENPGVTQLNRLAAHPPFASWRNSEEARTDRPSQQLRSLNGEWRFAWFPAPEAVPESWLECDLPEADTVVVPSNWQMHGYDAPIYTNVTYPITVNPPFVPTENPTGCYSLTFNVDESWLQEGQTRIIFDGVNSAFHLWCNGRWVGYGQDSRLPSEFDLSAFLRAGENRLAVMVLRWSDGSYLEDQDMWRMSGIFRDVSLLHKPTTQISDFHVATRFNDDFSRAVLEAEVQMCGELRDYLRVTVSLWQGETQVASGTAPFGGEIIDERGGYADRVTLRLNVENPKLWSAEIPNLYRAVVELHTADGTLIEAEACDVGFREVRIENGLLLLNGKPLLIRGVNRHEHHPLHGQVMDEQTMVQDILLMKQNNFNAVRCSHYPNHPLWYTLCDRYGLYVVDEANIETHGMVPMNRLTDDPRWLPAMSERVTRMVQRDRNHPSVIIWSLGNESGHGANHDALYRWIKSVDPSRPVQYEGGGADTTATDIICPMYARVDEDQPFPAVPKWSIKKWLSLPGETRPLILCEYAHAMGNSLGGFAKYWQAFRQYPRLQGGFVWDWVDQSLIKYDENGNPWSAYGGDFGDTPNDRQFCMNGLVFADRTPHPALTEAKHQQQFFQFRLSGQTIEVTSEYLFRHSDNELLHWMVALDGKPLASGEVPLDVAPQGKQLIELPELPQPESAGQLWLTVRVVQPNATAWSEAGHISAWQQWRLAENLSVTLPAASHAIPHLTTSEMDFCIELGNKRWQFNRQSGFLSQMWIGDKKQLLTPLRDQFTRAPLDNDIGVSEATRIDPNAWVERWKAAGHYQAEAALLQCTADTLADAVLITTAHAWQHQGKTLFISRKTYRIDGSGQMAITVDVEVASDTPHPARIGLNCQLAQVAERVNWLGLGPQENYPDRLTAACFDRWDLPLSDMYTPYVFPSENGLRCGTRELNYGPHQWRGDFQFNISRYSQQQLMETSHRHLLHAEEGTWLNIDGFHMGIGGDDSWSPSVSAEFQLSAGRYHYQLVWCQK

COC(=O)C1NN=C(C(=O)c2ccc(Cl)cc2)C1c1ccc(OC)cc1 (configuration not stated)
EC50 (Beta-galactosidase): > 40 µM (inactive)
IC50 [1]: 28.4 µM (not active)
EC50 [2]: > 260 µM (inactive)

c1ccc(CCc2nc(-c3ccc(-n4cccc4)cc3)no2)cc1
IC50 [3]: > 100 µM (inactive)
IC50 [4]: > 100 µM (not active)

COc1ccc2c(c1)C(=O)[C@@H](O)[C@H](c1ccc(OC)c(Br)c1)O2
EC50 (Beta-galactosidase): > 40 µM (inactive)
IC50 [1]: 34.6 µM (not active)
AC50 (INS1): 4.2 µM (active)
IC50 (H9c2): > 79 µM (inactive)

CCOC(=O)C1(CC2CC2)CCN(Cc2cnc(N(C)C)s2)CC1
EC50 (Insulin-degrading enzyme [5]): > 54.7 µM (inactive)
EC50 (Insulin-degrading enzyme [6]): > 54.7 µM (inactive)
IC50 (HEK293 [7]): > 89.3 µM (inactive)
EC50 (HEK293 [8]): > 56 µM (inactive)

O=C=Nc1ccc(Cc2ccc(N=C=O)cc2)cc1
AC50 [9]: 79.4 µM (inconclusive)

COC(=O)c1ccc(/C=C/C(=O)c2ccc(OC)cc2)cc1
IC50 [3]: > 100 µM (inactive)
IC50 [4]: > 100 µM (not active)

CC(C)CN(C(=O)COC(=O)c1ccc(Br)cc1)c1c(N)n(Cc2ccccc2)c(=O)[nH]c1=O
EC50 (Insulin-degrading enzyme [5]): > 54.7 µM (inactive)
EC50 (Insulin-degrading enzyme [6]): > 54.7 µM (inactive)
IC50 (HEK293 [7]): 13.4 µM (inactive)
EC50 (HEK293 [8]): > 55.9 µM (inactive)

CC1(C)Cc2cccc(OCC(=O)N3CCN(c4cccc(C(F)(F)F)c4)CC3)c2O1
IC50 [10]: > 100 µM (inactive)

Cc1cc(NC(=O)c2cnn3c(C(F)(F)F)cc(-c4ccccc4)nc23)no1
IC50 [11]: 1.99 µM (active)
IC50 [12]: > 16 µM (inactive)

COc1ccc(C(=O)NC2CC(C)(C)Cc3occc32)cc1 (configuration not stated)
CC50 (Vero): > 40 µM (active)

CCCCOC(=O)c1ccccc1C(=O)OCCCC [DIBUTYL PHTHALATE]
AC50 [9]: 79.4 µM (inconclusive)

CC(/C=C/c1cccc(Oc2ccc(F)cc2)c1)N(O)C(N)=O (configuration not stated)
AC50 [9]: 0.2 µM (inconclusive)

O=c1sc(Nc2ccccc2)nc2ccsc12
IC50 (CHO-K1): > 66.2 µM (inactive)
IC50 [13]: > 49.8 µM (inactive)
IC50 [14]: 2.43 µM (active)
IC50 [15]: 12.9 µM (inactive)

Cc1nn(CCC(=O)NN=C(S)Nc2ccccc2)c(C)c1Br
EC50 (Beta-galactosidase): > 40 µM (inactive)
IC50 [1]: > 40 µM (not active)
